{"source": "patent US11186578B2", "about": "“Substituted pyrrolo[3,2-d]pyrimidines and pyrazolo[4,3-d]pyrimidines as tyrosine kinase inhibitors” (Shenzhen TargetRx, Inc., priority 2016, dated 2021)", "key": {"BTK": {"biological_target": "BTK (Homo sapiens (Human), UniProt Q06187)", "sequence (Q06187 whole entry)": "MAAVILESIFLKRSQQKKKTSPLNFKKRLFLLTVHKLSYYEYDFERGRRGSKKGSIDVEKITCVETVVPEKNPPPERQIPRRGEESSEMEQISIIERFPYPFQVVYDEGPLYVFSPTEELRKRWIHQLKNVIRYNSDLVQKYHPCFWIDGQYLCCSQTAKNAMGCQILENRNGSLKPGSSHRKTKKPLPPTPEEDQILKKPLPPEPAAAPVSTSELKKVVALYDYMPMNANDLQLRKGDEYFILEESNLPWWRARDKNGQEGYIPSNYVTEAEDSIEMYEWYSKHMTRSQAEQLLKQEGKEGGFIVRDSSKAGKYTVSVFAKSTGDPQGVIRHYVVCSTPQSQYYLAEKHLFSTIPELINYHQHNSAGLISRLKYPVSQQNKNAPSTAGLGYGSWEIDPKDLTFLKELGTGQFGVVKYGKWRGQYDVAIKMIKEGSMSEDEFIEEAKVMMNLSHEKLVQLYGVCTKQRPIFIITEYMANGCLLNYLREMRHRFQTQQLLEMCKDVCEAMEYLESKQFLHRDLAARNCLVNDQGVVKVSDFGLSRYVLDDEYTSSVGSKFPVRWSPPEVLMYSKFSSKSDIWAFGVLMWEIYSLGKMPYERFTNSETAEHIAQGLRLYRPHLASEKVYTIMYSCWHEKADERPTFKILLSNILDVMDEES", "assay": "Kinase inhibition test (HTRF)", "type": "biochemical", "settings": "1 nM BTK, 20 μM ATP", "method": "(1) Kinase Inhibition Test\n1) Compound dilution: The test compounds were dissolved in DMSO to make a 10 mM stock solution. […] 2) Kinase assay: in a 10 μL reaction system (containing buffer 50 mM Hepes (pH 7.5), 5 mM MgCl2, 0.01 mM Na3VO4, 1% BSA) in a 384-well plate, 1 nM BTK, 1 μM biotin-TK peptide (from HTRF-TK kit) and 20 μM ATP were incubated at 23° C. for 90 minutes."}, "[1]": {"assay": "Metabolic stability in human liver microsomes", "type": "in vitro ADME", "settings": "pH 7.4, 1 μM compound, 0.5 mg/mL protein", "method": "(§1) (2) Metabolic Stability Evaluation Experiments in Microsome:\n(§2) 2) Preparation of phosphate buffer (100 mM, pH 7.4): 150 mL of pre-formulated 0.5 M potassium dihydrogen phosphate was taken and mixed with 700 mL of 0.5 M dipotassium hydrogen phosphate solution, and the pH of the mixture was adjusted to 7.4 with 0.5 M dipotassium hydrogen phosphate solution. Before use it was diluted by 5 times with ultrapure water, and magnesium chloride was added to obtain the phosphate buffer (100 mM), which contains 100 mM potassium phosphate, 3.3 mM magnesium chloride, and a pH of 7.4. […] 4) Preparation of stop solution: The stop solution was an acetonitrile solution containing 50 ng/mL propranolol hydrochloride and 200 ng/mL tolbutamide (internal standard). […] 6) Incubation of the sample: The stock solutions of the corresponding compounds were diluted to 0.25 mM with an aqueous solution containing 70% acetonitrile, which is used as a working solution and is ready for use. 398 μL of human liver microsomes dilution or rat liver microsome dilution was added to 96-well incubation plates (N=2), and 2 μL of 0.25 mM working solutions were added respectively, and evenly mixed. 7) Determination of metabolic stability: 300 μL of pre-cooled stop solution was added to each well of a 96-well deep well plate, which was placed on ice as a stop plate. The 96-well incubation plate and the NADPH regeneration system were placed in a 37° C. water bath, shaken at 100 rpm, and pre-incubated for 5 min. 80 μL of the incubation solution was taken from each well of the incubation plate, added to the stop plate, evenly mixed, and 20 μL of the NADPH regeneration system solution was added as 0 minute sample. Then, 80 μL of the NADPH regeneration system solution was added to each well of the incubation plate to start the reaction and start timing. […] 100 μL of the reaction solutions were taken at 10, 30, and 90 min, respectively, added to the stop place, and the reaction was terminated by vortexing for 3 min. The plate was centrifuged at 5000×g for 10 min at 4° C. 100 μL of the supernatant was taken and added into a 96-well plate to which 100 μL of distilled water was previously added, evenly mixed, and samples were analyzed by LC-MS/MS. 8) Data analysis: The peak area of the corresponding compounds and the internal standard was detected by LC-MS/MS system, and the ratio of the peak area of the compounds to the internal standard was calculated."}, "RAMOS": {"test_system": "RAMOS", "assay": "RAMOS IC50", "type": "cell-based", "settings": "Homo sapiens"}, "[2]": {"assay": "Metabolic stability in rat liver microsomes", "type": "in vitro ADME, SD rat", "settings": "Sprague-Dawley, pH 7.4, 1 μM compound, 0.5 mg/mL protein", "method": "as §1, §2"}, "in vivo": {"assay": "in vivo", "settings": "male, Sprague-Dawley, rat"}, "[3]": {"settings": "male, Sprague-Dawley, rat, in vivo"}, "[4]": {"assay": "Pharmacokinetic experiments in rats", "settings": "male, Sprague-Dawley, rat, in vivo"}}, "note": "pIC50: −log10 of the molar value.", "data": [{"smiles": "C=CC(=O)N1CCC[C@@H](c2cn(-c3ccc(Oc4ccccc4)cc3)c3c(N)ncnc23)C1", "note": "[Example 3, (S)-1-(3-(4-amino-5-(4-phenoxyphenyl)-5H-pyrrolo[3,2-d]pyrimidin-7-yl)piperidin-1-yl)prop-2-en-1-one]", "values": [{"measurement": "pIC50", "setting": "BTK", "result": "> 9.00"}, {"measurement": "half-life at 1 μM", "setting": "[1]", "result": 1.3, "unit": "min"}, {"measurement": "microsomal CLint at 1 μM", "setting": "[1]", "result": 1100, "unit": "µL/min/mg"}, {"measurement": "pIC50", "setting": "RAMOS", "result": "> 7.00"}]}, {"smiles": "C=CC(=O)N1CCC[C@H](c2cn(-c3ccc(Oc4ccccc4)cc3)c3c(N)ncnc23)C1", "note": "[Example 4, (R)-1-(3-(4-amino-5-(4-phenoxyphenyl)-5H-pyrrolo[3,2-d]pyrimidin-7-yl)piperidin-1-yl)prop-2-en-1-one]", "values": [{"measurement": "pIC50", "setting": "BTK", "result": "> 9.00"}, {"measurement": "half-life at 1 μM", "setting": "[2]", "result": 2.9, "unit": "min"}, {"measurement": "microsomal CLint at 1 μM", "setting": "[2]", "result": 483, "unit": "µL/min/mg"}, {"measurement": "half-life at 1 μM", "setting": "[1]", "result": 3.5, "unit": "min"}, {"measurement": "microsomal CLint at 1 μM", "setting": "[1]", "result": 399, "unit": "µL/min/mg"}, {"measurement": "pIC50", "setting": "RAMOS", "result": "> 7.00"}]}, {"smiles": "C=CC(=O)N1CCC[C@@H](c2nn(-c3ccc(Oc4ccccc4)cc3)c3c(N)ncnc23)C1", "note": "[Example 5, (R)-1-(3-(7-amino-1-(4-phenoxyphenyl)-1H-pyrazolo[4,3-d]pyrimidin-3-yl)piperidin-1-yl)prop-2-en-1-one]", "values": [{"measurement": "pIC50", "setting": "BTK", "result": "> 9.00"}, {"measurement": "half-life at 1 μM", "setting": "[1]", "result": 1.5, "unit": "min"}, {"measurement": "microsomal CLint at 1 μM", "setting": "[1]", "result": 922, "unit": "µL/min/mg"}, {"measurement": "pIC50", "setting": "RAMOS", "result": "> 7.00"}]}, {"smiles": "C=CC(=O)N1CCC[C@H](c2nn(-c3ccc(Oc4ccccc4)cc3)c3c(N)ncnc23)C1", "note": "[Example 6, (S)-1-(3-(7-amino-1-(4-phenoxyphenyl)-1H-pyrazolo[4,3-d]pyrimidin-3-yl)piperidin-1-yl)prop-2-en-1-one]", "values": [{"measurement": "pIC50", "setting": "BTK", "result": "> 9.00"}, {"measurement": "half-life at 1 μM", "setting": "[2]", "result": 4.1, "unit": "min"}, {"measurement": "microsomal CLint at 1 μM", "setting": "[2]", "result": 338, "unit": "µL/min/mg"}, {"measurement": "half-life at 1 μM", "setting": "[1]", "result": 12.5, "unit": "min"}, {"measurement": "microsomal CLint at 1 μM", "setting": "[1]", "result": 111, "unit": "µL/min/mg"}, {"measurement": "pIC50", "setting": "RAMOS", "result": "> 7.00"}]}, {"smiles": "C=CC(=O)N1CCC[C@@H](c2nc(-c3ccc(Oc4ccccc4)cc3)c3c(N)nccn23)C1", "note": "[Example 7, (R)-1-(3-(8-amino-1-(4-phenoxyphenyl)imidazo[1,5-a]pyrazin-3-yl)piperidin-1-yl)prop-2-en-1-one]", "values": [{"measurement": "pIC50", "setting": "BTK", "result": "> 9.00"}, {"measurement": "AUC(0-t)", "setting": "in vivo; iv, 0.5 mg/kg", "result": 401, "unit": "ng·h/mL"}, {"measurement": "Cmax", "setting": "in vivo; iv, 0.5 mg/kg", "result": 966, "unit": "ng/mL"}, {"measurement": "Tmax", "setting": "in vivo; iv, 0.5 mg/kg", "result": 4.8, "unit": "min"}, {"measurement": "AUC(0-t)", "setting": "in vivo; po, 10 mg/kg", "result": 931, "unit": "ng·h/mL"}, {"measurement": "Cmax", "setting": "in vivo; po, 10 mg/kg", "result": 365, "unit": "ng/mL"}, {"measurement": "Tmax", "setting": "in vivo; po, 10 mg/kg", "result": 40.2, "unit": "min"}, {"measurement": "half-life at 1 μM", "setting": "[2]", "result": 2.4, "unit": "min"}, {"measurement": "microsomal CLint at 1 μM", "setting": "[2]", "result": 576, "unit": "µL/min/mg"}, {"measurement": "half-life at 1 μM", "setting": "[1]", "result": 5.7, "unit": "min"}, {"measurement": "microsomal CLint at 1 μM", "setting": "[1]", "result": 243, "unit": "µL/min/mg"}, {"measurement": "F", "setting": "[3]", "result": 23.20, "unit": "%"}, {"measurement": "pIC50", "setting": "RAMOS", "result": "> 7.00"}]}, {"smiles": "C=CC(=O)N1CCC[C@@H](n2nc(-c3ccc(Oc4ccccc4)cc3)c3c(N)ncnc32)C1", "note": "[Ibrutinib]", "values": [{"measurement": "AUC(0-t)", "setting": "[4]; iv, 0.5 mg/kg", "result": 437, "unit": "ng·h/mL"}, {"measurement": "Cmax", "setting": "[4]; iv, 0.5 mg/kg", "result": 1230, "unit": "ng/mL"}, {"measurement": "Tmax", "setting": "[4]; iv, 0.5 mg/kg", "result": 4.8, "unit": "min"}, {"measurement": "AUC(0-t)", "setting": "[4]; po, 10 mg/kg", "result": 727, "unit": "ng·h/mL"}, {"measurement": "Cmax", "setting": "[4]; po, 10 mg/kg", "result": 250, "unit": "ng/mL"}, {"measurement": "Tmax", "setting": "[4]; po, 10 mg/kg", "result": 30, "unit": "min"}, {"measurement": "pIC50", "setting": "RAMOS", "result": "> 7.00"}]}]}
